Data reported in patent publication US10907197B2, “Probes for imaging huntingtin protein” (CHDI Foundation, Inc., priority 2014, dated 2021).
pIC50: −log10 of the molar value.

molecular target: T1, Q46 protein aggregates (Homo sapiens, UniProt P42858, INS38QQQQQQQQQQQQQQQQQQQQQQQQQ); assay: Q46 Radioligand Binding Assay (RBA); conditions: displacement of 10 nM [3H3]MK-3328 from 5 μM Q46 protein aggregates, 60 min at 37° C.
T1 construct: 33 μM GST-Q46 was incubated with 150 μg/mL thrombin in assay buffer (150 mM NaCl, 50 mM Tris pH 8.0) and 2 mM CaCl2 for 16 hr at 37° C; fused on or other part: GST at the N-terminus
T1 sequence (P42858 with tags, fused parts or gaps with the stated changes): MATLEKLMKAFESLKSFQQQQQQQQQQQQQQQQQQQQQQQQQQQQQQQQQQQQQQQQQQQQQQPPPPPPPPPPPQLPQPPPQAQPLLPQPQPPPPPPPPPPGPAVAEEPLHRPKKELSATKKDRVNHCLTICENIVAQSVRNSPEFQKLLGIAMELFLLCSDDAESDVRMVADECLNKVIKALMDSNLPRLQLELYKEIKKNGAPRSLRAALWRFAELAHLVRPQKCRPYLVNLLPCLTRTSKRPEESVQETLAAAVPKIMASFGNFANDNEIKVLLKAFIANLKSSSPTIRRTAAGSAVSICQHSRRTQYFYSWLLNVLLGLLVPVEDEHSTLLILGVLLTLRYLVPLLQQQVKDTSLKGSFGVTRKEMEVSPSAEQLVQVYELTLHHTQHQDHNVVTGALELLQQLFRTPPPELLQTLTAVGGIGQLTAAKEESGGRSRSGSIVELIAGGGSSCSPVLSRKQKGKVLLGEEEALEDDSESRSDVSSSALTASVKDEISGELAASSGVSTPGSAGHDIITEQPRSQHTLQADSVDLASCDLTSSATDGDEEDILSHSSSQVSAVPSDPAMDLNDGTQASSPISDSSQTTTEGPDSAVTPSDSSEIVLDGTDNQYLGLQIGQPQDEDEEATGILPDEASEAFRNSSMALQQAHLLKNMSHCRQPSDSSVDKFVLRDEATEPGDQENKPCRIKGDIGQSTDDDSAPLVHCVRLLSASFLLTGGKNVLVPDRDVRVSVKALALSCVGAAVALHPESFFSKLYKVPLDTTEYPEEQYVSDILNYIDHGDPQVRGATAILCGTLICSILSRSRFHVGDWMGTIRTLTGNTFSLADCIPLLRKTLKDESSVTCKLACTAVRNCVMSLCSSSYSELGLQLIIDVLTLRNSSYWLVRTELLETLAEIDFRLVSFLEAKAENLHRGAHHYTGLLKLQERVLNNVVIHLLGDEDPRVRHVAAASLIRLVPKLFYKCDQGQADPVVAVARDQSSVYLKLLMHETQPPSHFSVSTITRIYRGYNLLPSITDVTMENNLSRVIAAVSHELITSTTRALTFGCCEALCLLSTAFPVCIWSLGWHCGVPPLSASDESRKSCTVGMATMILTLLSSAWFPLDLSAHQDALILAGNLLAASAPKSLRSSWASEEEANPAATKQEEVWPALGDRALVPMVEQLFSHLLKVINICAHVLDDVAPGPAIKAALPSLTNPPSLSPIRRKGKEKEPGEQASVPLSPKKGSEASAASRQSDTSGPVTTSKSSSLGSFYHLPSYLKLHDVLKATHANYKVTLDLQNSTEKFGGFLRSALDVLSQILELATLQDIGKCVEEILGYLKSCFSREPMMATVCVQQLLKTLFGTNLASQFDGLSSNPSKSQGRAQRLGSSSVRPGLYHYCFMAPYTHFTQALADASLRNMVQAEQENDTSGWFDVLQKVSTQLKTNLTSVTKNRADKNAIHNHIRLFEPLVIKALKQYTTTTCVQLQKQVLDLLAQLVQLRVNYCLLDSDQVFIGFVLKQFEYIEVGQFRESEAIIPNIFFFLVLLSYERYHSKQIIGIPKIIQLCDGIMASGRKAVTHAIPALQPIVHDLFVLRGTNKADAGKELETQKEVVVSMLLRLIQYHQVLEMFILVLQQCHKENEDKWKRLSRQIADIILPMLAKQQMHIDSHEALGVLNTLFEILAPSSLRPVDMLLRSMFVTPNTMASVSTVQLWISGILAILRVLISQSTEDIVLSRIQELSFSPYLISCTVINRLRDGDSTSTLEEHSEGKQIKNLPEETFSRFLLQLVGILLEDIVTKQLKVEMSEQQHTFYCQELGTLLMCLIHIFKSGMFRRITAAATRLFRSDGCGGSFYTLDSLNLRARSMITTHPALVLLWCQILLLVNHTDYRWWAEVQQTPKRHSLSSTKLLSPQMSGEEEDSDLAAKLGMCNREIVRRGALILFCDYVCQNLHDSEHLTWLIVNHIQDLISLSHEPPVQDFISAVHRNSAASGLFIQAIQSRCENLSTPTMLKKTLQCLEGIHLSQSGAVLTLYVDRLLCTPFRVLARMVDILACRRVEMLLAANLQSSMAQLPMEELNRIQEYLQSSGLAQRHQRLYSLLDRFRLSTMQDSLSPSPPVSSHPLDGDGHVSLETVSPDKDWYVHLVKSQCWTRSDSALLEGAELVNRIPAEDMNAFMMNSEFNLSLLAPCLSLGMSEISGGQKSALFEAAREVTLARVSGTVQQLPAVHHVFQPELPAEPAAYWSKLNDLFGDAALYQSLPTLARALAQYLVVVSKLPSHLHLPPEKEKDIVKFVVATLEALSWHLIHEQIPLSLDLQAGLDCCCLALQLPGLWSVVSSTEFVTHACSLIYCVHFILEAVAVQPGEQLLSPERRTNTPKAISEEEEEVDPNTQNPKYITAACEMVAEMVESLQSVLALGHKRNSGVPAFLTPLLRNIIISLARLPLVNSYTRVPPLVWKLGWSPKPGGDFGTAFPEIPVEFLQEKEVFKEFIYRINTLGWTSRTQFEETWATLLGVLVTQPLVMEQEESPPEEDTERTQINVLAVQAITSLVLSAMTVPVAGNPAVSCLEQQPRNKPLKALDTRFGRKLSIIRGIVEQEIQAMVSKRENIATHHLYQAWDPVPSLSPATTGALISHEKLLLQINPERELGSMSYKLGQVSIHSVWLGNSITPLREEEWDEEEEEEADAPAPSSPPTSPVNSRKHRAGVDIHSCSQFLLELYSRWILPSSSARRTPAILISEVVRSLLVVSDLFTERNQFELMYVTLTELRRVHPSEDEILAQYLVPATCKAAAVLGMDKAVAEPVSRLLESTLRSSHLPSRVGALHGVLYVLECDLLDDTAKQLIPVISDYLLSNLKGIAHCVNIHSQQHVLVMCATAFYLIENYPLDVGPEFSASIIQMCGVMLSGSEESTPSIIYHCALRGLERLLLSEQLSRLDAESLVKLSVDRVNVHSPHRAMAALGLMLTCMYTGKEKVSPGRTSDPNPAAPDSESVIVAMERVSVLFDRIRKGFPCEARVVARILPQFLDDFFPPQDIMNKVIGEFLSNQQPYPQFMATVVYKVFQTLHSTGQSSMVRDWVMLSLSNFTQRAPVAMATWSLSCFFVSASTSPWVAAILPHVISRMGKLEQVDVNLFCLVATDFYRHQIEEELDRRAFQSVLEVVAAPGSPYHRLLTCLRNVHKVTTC
Method: Q46 Radioligand Binding Assay
For radioligand binding assays (RBA) GST-Q46 protein was generated based on a previous publication (Scherzinger et al. Cell, Vol. 90, 549-558, Aug. 8, 1997). For experiments 33 μM GST-Q46 was incubated with 150 μg/mL thrombin in assay buffer (150 mM NaCl, 50 mM Tris pH 8.0) and 2 mM CaCl2 for 16 hr at 37° C. Aggregated Q46 was pelleted by centrifugation for 5 min at 13,000 rpm in a bench top centrifuge and re-dissolved in the same volume of assay buffer. Test compounds were prepared by titration in DMSO at 11 concentrations from 33 μM to 1 nM. For the RBA, Q46 protein aggregates and test compounds were pre-incubated in assay buffer for 20 min at room temperature, in 140 μL/well in a 96-well plate (pp, round bottom). Then, ligand was added in 10 μL/well and incubated for 60 min at 37° C. Final assay concentrations were 1 μM to 30 pM test compound, 5 μM Q46 protein (equivalent monomer concentration) and 10 nM ligand [^3H3]MK-3328 (Harrision et al., ACS Med. Chem. Lett., 2 (2011), pp 498-502). Samples were transferred onto GF/B filter plates and washed 2× with 200 μL PBS using a Filtermate Harvester. After drying filter plates for 1 hr at 37° C., the back of the plates was sealed with foil and 30 μL/well scintillation fluid (Packard MicroScint 40) was added, incubated for incubated for 15 min in the dark and counted in a TopCount reader. […] IC50 values were determined with a sigmoidal inhibition model with four variables (top, bottom, slope, IC50) in a global fit using the normalized replicate data.

| pIC50 | SMILES |
| --- | --- |
| > 7.00 | COc1ccc2nc(-c3ncccc3Br)sc2c1 [2-(3-bromopyridin-2-yl)-6-methoxy-1,3-benzothiazole] |
| 6.30 to 7.00 | Oc1ccc2nc(-c3ccncc3Br)sc2c1 [2-(3-bromopyridin-4-yl)-1,3-benzothiazol-6-ol] |
| > 7.00 | FCCOc1ccc2nc(-c3ccncc3Br)sc2c1 [2-(3-bromopyridin-4-yl)-6-(2-fluoroethoxy)-1,3-benzothiazole] |
| > 7.00 | COc1ccc2nc(-c3ccncc3Br)sc2c1 [2-(3-bromopyridin-4-yl)-6-methoxy-1,3-benzothiazole] |
| > 7.00 | COc1ccc2nc(-c3ccncc3F)sc2c1 [2-(3-fluoropyridin-4-yl)-6-methoxy-1,3-benzothiazole] |
| 6.30 to 7.00 | Cc1cccc(-c2nc3cc(N)ccc3o2)c1 [2-(3-methylphenyl)-1,3-benzoxazol-5-amine] |
| < 6.30 | Cc1cccc(-c2nc3cc(N)cnc3o2)c1 [2-(3-methylphenyl)-[1,3]oxazolo[5,4-b]pyridin-6-amine] |
| > 7.00 | COc1ccc2oc(-c3ncccc3C#N)cc2c1 [2-(5-methoxy-1-benzofuran-2-yl)pyridine-3-carbonitrile] |
| > 7.00 | COc1ccc2nc(-c3ccccc3C#N)sc2c1 [2-(6-methoxy-1,3-benzothiazol-2-yl)benzonitrile] |
| > 7.00 | COc1ccc2nc(-c3ncccc3C#N)sc2c1 [2-(6-methoxy-1,3-benzothiazol-2-yl)pyridine-3-carbonitrile] |
| > 7.00 | COc1ccc2nc(-c3ccccc3C#N)oc2c1 [2-(6-methoxy-1,3-benzoxazol-2-yl)benzonitrile] |
| < 6.30 | Nc1ccc2oc(-c3cccnc3)nc2c1 [2-(pyridin-3-yl)-1,3-benzoxazol-5-amine] |
| 6.30 to 7.00 | COc1ccc2oc(-c3cccc(CN(C)C)c3C#N)cc2c1 [2-[(dimethylamino)methyl]-6-(5-methoxy-1-benzofuran-2-yl)benzonitrile] |
| > 7.00 | COc1ccc2oc(-c3cccc(Br)c3C#N)cc2c1 [2-bromo-6-(5-methoxy-1-benzofuran-2-yl)benzonitrile] |
| > 7.00 | COc1ncc2cc(-c3ccccc3C#N)oc2n1 [2-{2-methoxyfuro[2,3-d]pyrimidin-6-yl}benzonitrile] |
| > 7.00 | N#Cc1ccccc1-c1nc2cc3c(cc2o1)OCO3 [2-{4,6,10-trioxa-12-azatricyclo[7.3.0.0^3,^7]dodeca-1(9),2,7,11-tetraen-11-yl}benzonitrile] |
| > 7.00 | N#Cc1ccccc1-c1cc2cc(Br)cnc2o1 [2-{5-bromofuro[2,3-b]pyridin-2-yl}benzonitrile] |
| > 7.00 | COc1cnc2oc(-c3ccccc3C#N)cc2c1 [2-{5-methoxyfuro[2,3-b]pyridin-2-yl}benzonitrile] |
| > 7.00 | COc1cc2cc(-c3ccccc3C#N)oc2cn1 [2-{5-methoxyfuro[2,3-c]pyridin-2-yl}benzonitrile] |
| > 7.00 | N#CC1=C(c2cc3cc(O)ccc3o2)N2CCN=C2S1 [3-(5-hydroxy-1-benzofuran-2-yl)-5H,6H-imidazo[2,1-b][1,3]thiazole-2-carbonitrile] |
| > 7.00 | COc1ccc2oc(C3=C(C#N)SC4=NCCN43)cc2c1 [3-(5-methoxy-1-benzofuran-2-yl)-5H,6H-imidazo[2,1-b][1,3]thiazole-2-carbonitrile] |
| > 7.00 | COc1ccc2nc(-c3cnccc3C#N)sc2c1 [3-(6-methoxy-1,3-benzothiazol-2-yl)pyridine-4-carbonitrile] |
| > 7.00 | C#Cc1cnccc1-c1cc2cc(OC)ccc2o1 [3-ethynyl-4-(5-methoxy-1-benzofuran-2-yl)pyridine] |
| 6.30 to 7.00 | COc1ccc2oc(-c3ccncc3I)cc2c1 [3-iodo-4-(5-methoxy-1-benzofuran-2-yl)pyridine] |
| < 6.30 | N#Cc1cnccc1-c1nc2ccccc2s1 [4-(1,3-benzothiazol-2-yl)pyridine-3-carbonitrile] |
| > 7.00 | COc1ccc2oc(-c3ccncc3)c(Br)c2c1 [4-(3-bromo-5-methoxy-1-benzofuran-2-yl)pyridine] |
| > 7.00 | N#Cc1cnccc1-c1cc2cc(O)ccc2o1 [4-(5-hydroxy-1-benzofuran-2-yl)pyridine-3-carbonitrile] |
| 6.30 to 7.00 | COc1ccc2sc(-c3ccncc3C#N)nc2c1 [4-(5-methoxy-1,3-benzothiazol-2-yl)pyridine-3-carbonitrile] |

| pIC50 | SMILES |
| --- | --- |
| > 7.00 | COc1ccc2oc(-c3cccc4[nH]ncc34)cc2c1 [4-(5-methoxy-1-benzofuran-2-yl)-1H-indazole] |
| 6.30 to 7.00 | COc1ccc2oc(-c3ccncc3C)cc2c1 [4-(5-methoxy-1-benzofuran-2-yl)-3-methylpyridine] |
| > 7.00 | COc1ccc2oc(-c3ccncc3C#N)cc2c1 [4-(5-methoxy-1-benzofuran-2-yl)pyridine-3-carbonitrile] |
| > 7.00 | COc1ccc2oc(-c3ccncc3C#N)c(C)c2c1 [4-(5-methoxy-3-methyl-1-benzofuran-2-yl)pyridine-3-carbonitrile] |
| 6.30 to 7.00 | CNc1cnccc1-c1nc2ccc(OC)cc2s1 [4-(6-methoxy-1,3-benzothiazol-2-yl)-N-methylpyridin-3-amine] |
| > 7.00 | COc1ccc2nc(-c3ccc(C#N)cc3)sc2c1 [4-(6-methoxy-1,3-benzothiazol-2-yl)benzonitrile] |
| > 7.00 | COc1ccc2nc(-c3ccnc(C#N)c3)sc2c1 [4-(6-methoxy-1,3-benzothiazol-2-yl)pyridine-2-carbonitrile] |
| 6.30 to 7.00 | COc1ccc2nc(-c3ccncc3C#N)sc2c1 [4-(6-methoxy-1,3-benzothiazol-2-yl)pyridine-3-carbonitrile] |
| > 7.00 | COc1ccc2nc(-c3ccncc3C#N)oc2c1 [4-(6-methoxy-1,3-benzoxazol-2-yl)pyridine-3-carbonitrile] |
| < 6.30 | COc1ccc2nc(-c3ccncc3C#N)[nH]c2c1 [4-(6-methoxy-1H-1,3-benzodiazol-2-yl)pyridine-3-carbonitrile] |
| 6.30 to 7.00 | COc1ccc2cc(-c3ccncc3C#N)ccc2c1 [4-(6-methoxynaphthalen-2-yl)pyridine-3-carbonitrile] |
| 6.30 to 7.00 | COc1ccc2nc(-c3ccncc3C#N)ccc2c1 [4-(6-methoxyquinolin-2-yl)pyridine-3-carbonitrile] |
| > 7.00 | N#Cc1cnccc1-c1cc2cc(OCCF)ccc2o1 [4-[5-(2-fluoroethoxy)-1-benzofuran-2-yl]pyridine-3-carbonitrile] |
| 6.30 to 7.00 | N#Cc1cnccc1-c1cc2cc(OCCO)ccc2o1 [4-[5-(2-hydroxyethoxy)-1-benzofuran-2-yl]pyridine-3-carbonitrile] |
| > 7.00 | COCCOc1ccc2oc(-c3ccncc3C#N)cc2c1 [4-[5-(2-methoxyethoxy)-1-benzofuran-2-yl]pyridine-3-carbonitrile] |
| > 7.00 | COCOc1ccc2oc(-c3cn(C)nc3C#N)cc2c1 [4-[5-(methoxymethoxy)-1-benzofuran-2-yl]-1-methyl-1H-pyrazole-3-carbonitrile] |
| > 7.00 | COCOc1ccc2oc(-c3ccncc3C#N)cc2c1 [4-[5-(methoxymethoxy)-1-benzofuran-2-yl]pyridine-3-carbonitrile] |
| > 7.00 | N#Cc1cnccc1-c1nc2ccc(OCCF)cc2s1 [4-[6-(2-fluoroethoxy)-1,3-benzothiazol-2-yl]pyridine-3-carbonitrile] |
| > 7.00 | CN(C)c1ccc2nc(-c3ccncc3C#N)sc2c1 [4-[6-(dimethylamino)-1,3-benzothiazol-2-yl]pyridine-3-carbonitrile] |
| > 7.00 | N#Cc1cnccc1-c1nc2ccc(C(F)(F)F)cc2s1 [4-[6-(trifluoromethyl)-1,3-benzothiazol-2-yl]pyridine-3-carbonitrile] |
| > 7.00 | COc1ccc2oc(-c3cc(CN(C)C)ccc3C#N)cc2c1 [4-[(dimethylamino)methyl]-2-(5-methoxy-1-benzofuran-2-yl)benzonitrile] |
| < 6.30 | COc1ccc2oc(-c3ncnc(I)c3C#N)cc2c1 [4-iodo-6-(5-methoxy-1-benzofuran-2-yl)pyrimidine-5-carbonitrile] |
| > 7.00 | CN(CCO)c1ccc2oc(-c3ccncc3C#N)cc2c1 [4-{5-[(2-hydroxyethyl)(methyl)amino]-1-benzofuran-2-yl}pyridine-3-carbonitrile] |
| > 7.00 | COc1cc2cc(-c3ccncc3C#N)oc2cn1 [4-{5-methoxyfuro[2,3-c]pyridin-2-yl}pyridine-3-carbonitrile] |
| > 7.00 | COc1cnc2cc(-c3ccncc3C#N)oc2c1 [4-{6-methoxyfuro[3,2-b]pyridin-2-yl}pyridine-3-carbonitrile] |
| > 7.00 | COc1ccc2oc(-c3ccc(Br)cc3C#N)cc2c1 [5-bromo-2-(5-methoxy-1-benzofuran-2-yl)benzonitrile] |
| > 7.00 | O=c1[nH]cc(Br)cc1-c1cc2cc(Br)cnc2o1 [5-bromo-3-{5-bromofuro[2,3-b]pyridin-2-yl}-1,2-dihydropyridin-2-one] |
